Laboratory results taken from US12077503B2, “Substituted cyclic amides and their use as herbicides” (FMC CORPORATION, priority 2015, dated 2024).

Tests used:
Format in all cases: in vivo
[1] = system: blackgrass (Alopecurus myosuroides); assay: Test A postemergence
Procedure, shortened: (§1)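 Visual injury scores from 0, no effect, to 100, complete control, were assigned versus untreated controls roughly 10 d after treatment in the greenhouse. Test chemicals, formulated with surfactant in a non-phytotoxic solvent, were applied to planted seeds as a preemergence soil spray or postemergence to one- to two-leaf plants 2 to 10 cm tall, in loam–sand soil.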

Kochia (Kochia scoparia) [2] = assay: Test A postemergence
Procedure, shortened: as §1

[3] = system: pigweed (Amaranthus retroflexus); assay: Test A postemergence
Procedure, shortened: as §1

[4] = system: ragweed (common ragweed, Ambrosia elatior); assay: Test A postemergence
Procedure, shortened: as §1

[5] = system: ryegrass, Italian (Italian ryegrass, Lolium multiflorum); assay: Test A postemergence
Procedure, shortened: as §1

[6] = system: barnyardgrass (Echinochloa crus-galli); assay: Test A postemergence
Procedure, shortened: as §1

[7] = system: wheat (Triticum aestivum); assay: Test A postemergence
Procedure, shortened: as §1

[8] = system: Galium (catchweed bedstraw, Galium aparine); assay: Test A postemergence
Procedure, shortened: as §1

[9] = system: giant foxtail (Setaria faberii); assay: Test A postemergence
Procedure, shortened: as §1

corn (Zea mays) = assay: Test A postemergence
Procedure, shortened: as §1

rice (Oryra sativa) = assay: Test B flooded paddy test; details: Flood, 250 g ai/ha; 0 to 100 scale where 0 is no effect and 100 is complete control; 13 to 15 d
Procedure, shortened: (§2)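 Percent control, visually estimated after 13–15 d in the greenhouse on a 0–100 basis, compares treated pots with untreated ones; compound was put into paddy water 3 cm above the soil when plants had two leaves.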

[10] = system: ducksalad (Heteranthera limosa); assay: Test B flooded paddy test; details: Flood, 250 g ai/ha; 0 to 100 scale where 0 is no effect and 100 is complete control; 13 to 15 d
Procedure, shortened: as §2

[11] = system: barnyardgrass (Echinochloa crus-galli); assay: Test B flooded paddy test; details: Flood, 250 g ai/ha; 0 to 100 scale where 0 is no effect and 100 is complete control; 13 to 15 d
Procedure, shortened: as §2

[12] = system: sedge, umbrella (small-flower umbrella sedge, Cyperus difformis); assay: Test B flooded paddy test; details: Flood, 250 g ai/ha; 0 to 100 scale where 0 is no effect and 100 is complete control; 13 to 15 d
Procedure, shortened: as §2

Kochia (Kochia scoparia) [13] = assay: Test A preemergence; details: Preemergence
Procedure, shortened: as §1

[14] = system: pigweed (Amaranthus retroflexus); assay: Test A preemergence; details: Preemergence
[15] = system: ragweed (common ragweed, Ambrosia elatior); assay: Test A preemergence; details: Preemergence
Procedure, shortened: as §1

[16] = system: ryegrass, Italian (Italian ryegrass, Lolium multiflorum); assay: Test A preemergence; details: Preemergence
Procedure, shortened: as §1

[17] = system: barnyardgrass (Echinochloa crus-galli); assay: Test A preemergence; details: Preemergence
Procedure, shortened: as §1

[18] = system: giant foxtail (Setaria faberii); assay: Test A preemergence; details: Preemergence
Procedure, shortened: as §1

[19] = 125 g ai/ha, postemergence, visual injury rating on 0 to 100 scale (0 no effect, 100 complete control), approx. 10 d
[20] = Postemergence, 500 g ai/ha, 0 to 100 scale where 0 is no effect and 100 is complete control
[21] = 125 g ai/ha, visual injury after approximately 10 d, 0 to 100 scale where 0 is no effect and 100 is complete control
[22] = 500 g ai/ha, visual injury approx. 10 d

`Cc1ccc(C2CNC(=O)C2C(=O)Nc2ccccc2S(C)(=O)=O)c(F)c1` (racemic) [Compound 507] was tested, and the “Blackgrass plant response rating” value [1, 19] was 0, the “Plant response rating, Blackgrass” value [1, 20] was 0 and the “Kochia plant response rating” value (Kochia (Kochia scoparia) [2]; [19]) was 30. The “Plant response rating, Kochia” value (Kochia (Kochia scoparia) [2]; [20]) was 70, the “Pigweed plant response rating” value [3, 19] was 0 and the “Plant response rating, Pigweed” value [3, 20] was 0. For the same compound, the “Ragweed plant response rating” value [4, 19] was 0, the “Plant response rating, Ragweed” value [4, 20] was 20 and the “Ryegrass, Italian plant response rating” value [5, 19] was 0. For the same compound, the “Plant response rating, Ryegrass, Italian” value [5, 20] was 0, the “Barnyardgrass plant response rating” value [6, 19] was 20 and the “Plant response rating, Barnyardgrass” value [6, 20] was 60. The “Wheat plant response rating” value [7, 19] was 0, the “Plant response rating, Wheat” value [7, 20] was 0 and the “Galium plant response rating” value [8, 19] was 0. The “Plant response rating, Galium” value [8, 20] was 20, the “Foxtail, Giant plant response rating” value [9, 19] was 0 and the “Plant response rating, Foxtail, Giant” value [9, 20] was 20. For the same compound, the “Corn plant response rating” value (corn (Zea mays); [19]) was 0, the “Plant response rating, Corn” value (corn (Zea mays); [20]) was 0 and the “Plant response rating, Rice” value (rice (Oryra sativa)) was 0. The “Plant response rating, Ducksalad” value [10] was 75, the “Plant response rating, Barnyardgrass” value [11] was 0 and the “Plant response rating, Sedge, Umbrella” value [12] was 0. The “Plant response rating, Kochia” value (Kochia (Kochia scoparia) [13]; [21]) was 0, the “Kochia plant response rating (0 to 100 scale, 0 is no effect, 100 is complete control)” value (Kochia (Kochia scoparia) [13]; [22]) was 70 and the “Plant response rating, Pigweed” value [14, 21] was 0. The “Pigweed plant response rating (0 to 100 scale, 0 is no effect, 100 is complete control)” value [14, 22] was 20, the “Plant response rating, Ragweed” value [15, 21] was 0 and the “Ragweed plant response rating (0 to 100 scale, 0 is no effect, 100 is complete control)” value [15, 22] was 0. The “Plant response rating, Ryegrass, Italian” value [16, 21] was 0, the “Ryegrass, Italian plant response rating (0 to 100 scale, 0 is no effect, 100 is complete control)” value [16, 22] was 0 and the “Plant response rating, Barnyardgrass” value [17, 21] was 40. For the same compound, the “Barnyardgrass plant response rating (0 to 100 scale, 0 is no effect, 100 is complete control)” value [17, 22] was 80, the “Plant response rating, Foxtail, Giant” value [18, 21] was 0 and the “Foxtail, Giant plant response rating (0 to 100 scale, 0 is no effect, 100 is complete control)” value [18, 22] was 50.
